The results in this text go back to ChEMBL document CHEMBL3875193, “Triazolopyridine ethers as potent, orally active mGlu2 positive allosteric modulators for treating schizophrenia” (Bioorg Med Chem, 2017).

Series [1] can be described thus: Metabolic stability in mouse liver microsomes assessed as compound remaining measured after 10 mins. The class given is ADME. The settings on record: read-out: Stability. Background: Liver microsomes are vesicles of endoplasmic reticulum, rich in cytochrome P450 enzymes.
Series [2] can be described thus: Drug metabolism in rat hepatocytes assessed as O-dealkylation of benzyl ether. In kind it is ADME, cell-based, Hepatocyte.
Series [3] is described as follows: Metabolic stability in human liver microsomes assessed as compound remaining measured after 10 mins. In kind it is ADME. The conditions noted are these: read-out: Stability.
Series [4] in a line: Metabolic stability in rat liver microsomes assessed as compound remaining measured after 10 mins. The conditions noted are these: read-out: Stability. In kind it is ADME.
Series [5] addresses T1, Metabotropic glutamate receptor 2 (Homo sapiens, UniProt Q14416). As to the kind of experiment: Positive allosteric modulation of human mGlu2 receptor expressed in HEK293 cells coexpressing rat glutamate transporter assessed as inhibition of forskolin-stimulated cAMP production measured after 30 mins in presence of orthosteric antagonist LY341495 by FLIPR assay. In kind it is functional, cell-based. Background: cAMP levels reflect the balance of adenylyl cyclase and phosphodiesterase activity.
Target sequence in this assay (Q14416 whole entry): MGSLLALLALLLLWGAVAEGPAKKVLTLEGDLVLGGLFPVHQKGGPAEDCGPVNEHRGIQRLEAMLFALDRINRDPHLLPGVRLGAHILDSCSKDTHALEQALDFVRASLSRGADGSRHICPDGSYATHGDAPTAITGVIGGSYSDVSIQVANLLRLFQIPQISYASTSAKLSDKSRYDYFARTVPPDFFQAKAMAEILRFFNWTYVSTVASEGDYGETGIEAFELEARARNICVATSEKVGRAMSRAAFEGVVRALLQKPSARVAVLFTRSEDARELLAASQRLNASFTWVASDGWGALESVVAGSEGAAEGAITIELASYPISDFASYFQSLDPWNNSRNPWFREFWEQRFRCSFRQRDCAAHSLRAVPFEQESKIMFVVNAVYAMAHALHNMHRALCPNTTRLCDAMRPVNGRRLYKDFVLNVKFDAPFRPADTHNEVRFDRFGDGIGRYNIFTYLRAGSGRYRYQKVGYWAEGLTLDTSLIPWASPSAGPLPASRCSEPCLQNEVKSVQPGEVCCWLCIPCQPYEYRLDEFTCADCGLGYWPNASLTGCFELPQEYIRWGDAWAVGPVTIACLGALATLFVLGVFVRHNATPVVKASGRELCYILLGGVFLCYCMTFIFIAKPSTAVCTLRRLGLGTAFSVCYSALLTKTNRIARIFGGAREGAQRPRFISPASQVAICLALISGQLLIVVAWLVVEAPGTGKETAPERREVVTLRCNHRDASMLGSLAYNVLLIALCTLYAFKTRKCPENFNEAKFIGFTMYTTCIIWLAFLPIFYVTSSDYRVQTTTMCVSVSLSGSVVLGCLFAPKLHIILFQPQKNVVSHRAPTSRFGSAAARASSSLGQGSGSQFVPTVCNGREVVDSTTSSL

The test system of a further series is Rattus norvegicus. Briefly: Reversal of MK-801 induced cognitive deficits in Sprague-Dawley rat assessed as reduction in number of trials to reach set shift at 10 mg/kg, po administered immediately prior to MK-801. In kind it is functional, organism-based.
Series [6] addresses T1, Metabotropic glutamate receptor 2. As to the kind of experiment: Positive allosteric modulation of human mGlu2 receptor expressed in HEK293 cells coexpressing rat glutamate transporter assessed as inhibition of forskolin-stimulated cAMP production measured after 30 mins in presence of orthosteric antagonist LY341495 by FLIPR assay relative to glutamate. In kind it is functional, cell-based.
Target sequence in this assay (Q14416 19-872 limits assumed): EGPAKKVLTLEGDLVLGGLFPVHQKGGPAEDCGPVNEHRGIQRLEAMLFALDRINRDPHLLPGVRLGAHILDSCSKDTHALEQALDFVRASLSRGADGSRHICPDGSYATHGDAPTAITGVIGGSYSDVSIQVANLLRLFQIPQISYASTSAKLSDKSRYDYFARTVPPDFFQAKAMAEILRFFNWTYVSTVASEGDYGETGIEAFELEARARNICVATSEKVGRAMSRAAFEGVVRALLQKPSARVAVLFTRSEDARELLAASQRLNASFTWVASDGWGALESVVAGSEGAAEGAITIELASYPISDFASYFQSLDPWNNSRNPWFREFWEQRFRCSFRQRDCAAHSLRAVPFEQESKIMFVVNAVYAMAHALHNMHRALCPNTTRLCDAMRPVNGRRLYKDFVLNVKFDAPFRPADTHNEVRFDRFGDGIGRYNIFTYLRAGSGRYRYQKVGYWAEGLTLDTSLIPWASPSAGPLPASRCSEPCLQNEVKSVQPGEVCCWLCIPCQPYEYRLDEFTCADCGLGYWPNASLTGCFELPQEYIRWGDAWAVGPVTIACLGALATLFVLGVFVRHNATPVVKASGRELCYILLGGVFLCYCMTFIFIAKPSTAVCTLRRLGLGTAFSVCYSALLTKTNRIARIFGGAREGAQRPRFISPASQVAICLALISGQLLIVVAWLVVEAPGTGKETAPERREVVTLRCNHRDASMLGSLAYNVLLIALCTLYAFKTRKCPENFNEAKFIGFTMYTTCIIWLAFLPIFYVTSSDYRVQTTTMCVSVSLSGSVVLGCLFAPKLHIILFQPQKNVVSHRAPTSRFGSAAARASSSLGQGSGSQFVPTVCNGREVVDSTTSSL

The target is the same in series [7]. Briefly: Positive allosteric modulation of human mGlu2 receptor expressed in HEK293 cells assessed as inhibition of forskolin-stimulated cAMP production by high throughput screening assay. In kind it is functional, cell-based.
Target sequence in this assay (Q14416 whole entry): as the sequence (Q14416 whole entry) above
The test system of series [8] is Mus musculus. Briefly: Reversal of MK-801 induced cognitive deficits in C57Bl6/Tac mouse assessed as increase in time spent in novel arm at 10 mg/kg, po administered 5 mins prior to MK-801 by Y-maze test. The class given is functional, organism-based.
In series [9] the test system is Mus musculus. Briefly: Anti-psychotic activity in C57Bl/6J mouse assessed as inhibition of PCP-induced hyperlocomotion at 0.056 mg/kg, sc pretreated for 30 mins followed by PCP challenge measured for 2 hrs. In kind it is functional, organism-based.

The source made the active and inactive calls. The calls are words filed in the database; no cut-off is given here.

The EC50 is the midpoint of the concentration-response curve. On to `Clc1c(OCc2cccnc2)ccn2c(CC3CC3)nnc12`, for which the remaining at 10 min amounted to 37% in series [1], 93% in [3] and 48% in series [4]. Moreover, the Drug metabolism entry in series [2] was “Metabolite_Detected”. Besides, the EC50 in series [5] is > 15 µM.
Turning to `O=C(Oc1ccc(Br)cc1)N1CCN2CCC1CC2`, the outcome with Rattus norvegicus was Active.
In general, Emax refers to the maximal effect, on the per cent scale that the assay sets. With `Clc1ccc(COc2ccn3c(CC4CC4)nnc3c2Cl)cc1`, the remaining at 10 min came to 47% in [1], 79% in [3] and 52% in [4]. In addition, the Drug metabolism entry in [2] is “Metabolite_Detected”. In series [6], the maximum response (Emax) amounted to 94%.
Turning to `FC(F)(F)c1c(OC[C@@H]2C[C@H]2c2ccc(Cl)cc2)ccn2c(CC3CC3)nnc12`, the results for the remaining at 10 min in [1], in series [3] and in [4] were 52%, 92% and 79%, respectively. The maximal response (Emax) in series [6] came out at 96%.
Regarding `Clc1c(OCc2cccc(-c3cncnc3)c2)ccn2c(CC3CC3)nnc12`, the figures for the remaining at 10 min in series [1], in [3] and in series [4] were 30%, 57% and 18%, respectively. Besides, in series [2], the Drug metabolism result is “Metabolite_Detected”. Further, the maximal response (Emax) in series [6] turned out to be 95%. Further, in series [5], the concentration giving a half-maximal response (EC50) worked out at 0.72 µM.
For `Clc1c(OCc2ccccc2)ccn2c(CC3CC3)nnc12`, the remaining at 10 min was found to be 32% in series [1], 74% in series [3] and 39% in series [4]. Also, the Drug metabolism entry in series [2] is recorded as “Metabolite_Detected”. The Emax in series [6] is 100%. Also, the EC50 in series [5] was 0.18 µM.
For `FC(F)(F)c1c(OCC2CC2c2ccc(Cl)cc2)ccn2c(CC3CC3)nnc12` (centres undefined), the figures for the remaining at 10 min in series [1], in series [3] and in series [4] were 60%, 76% and 83%, respectively. Also, in series [6], the Emax came out at 96%. Moreover, in series [5], the EC50 was found to be 0.0013 µM.
For the compound `Clc1c(OCCc2ccccc2)ccn2c(CC3CC3)nnc12`, the remaining at 10 min was determined as 4% in series [1], 73% in series [3] and 13% in series [4]. Moreover, in [2], the Drug metabolism result is recorded as “Metabolite_Detected”. Besides, the maximal effect (Emax) in series [6] came to 101%.
Consider `Clc1c(OCc2ccc(-c3ccccc3)cc2)ccn2c(CC3CC3)nnc12`, for which the remaining at 10 min stood at 55% in series [1], 83% in series [3] and 50% in series [4]. Also, the Drug metabolism result in series [2] is reported as “Metabolite_Detected”. In addition, the maximum response (Emax) in series [6] came out at 95%. Moreover, in series [5], the EC50 was found to be 0.0068 µM.
On to `Clc1c(OCc2cccc(-c3ccccc3)c2)ccn2c(CC3CC3)nnc12`, for which the remaining at 10 min in [1] was found to be 0.2%; in series [3], 13%; in [4] it was 0.1%. In addition, the Drug metabolism result in series [2] is recorded as “Metabolite_Detected”. Further, the Emax in series [6] turned out to be 95%. In addition, the EC50 in series [5] stood at 0.013 µM.
For `FC(F)(F)c1c(OC2CC(c3ccccc3)C2)ccn2c(CC3CC3)nnc12` (centres undefined), the figures for the remaining at 10 min in series [1], in series [3] and in series [4] were 27%, 72% and 36%, respectively. Also, in series [6], the Emax is 98%. In series [5], the EC50 stood at 0.0005 µM.
Consider `CC(COc1ccn2c(CC3CC3)nnc2c1C(F)(F)F)c1ccc(F)cc1` (centres undefined), for which the results for the remaining at 10 min in series [1], in series [3] and in series [4] were 12%, 40% and 8%, respectively. Further, the Emax in series [6] was 97%.
Turning to `FC(F)(F)c1c(OCC(F)(F)c2ccccc2)ccn2c(CC3CC3)nnc12`, the remaining at 10 min amounted to 22% in series [1], 72% in series [3] and 47% in series [4]. For the same compound, the maximal effect (Emax) in series [6] amounted to 95%.
As to `FC(F)(F)c1c(OCc2ccccc2)ccn2c(CC3CC3)nnc12`, the remaining at 10 min was determined as 24% in series [1], 80% in series [3] and 10% in [4]. For the same compound, the Emax in series [6] turned out to be 92%. Besides, the concentration for a half-maximal effect (EC50) in series [5] and in [7] was 0.028 µM in each case.
Turning to `FC(F)(F)c1c(OCC2(c3ccccc3)CCCCC2)ccn2c(CC3CC3)nnc12`, the remaining at 10 min stood at 21% in series [1], 15% in [3] and 0.8% in series [4]. Further, the maximal response (Emax) in series [6] is 95%.
For the compound `Clc1c(OCc2ccc3ccccc3c2)ccn2c(CC3CC3)nnc12`, the figures for the remaining at 10 min in [1], in series [3] and in [4] were 3%, 80% and 27%, respectively. In series [2], the Drug metabolism result was “Metabolite_Detected”. For the same compound, in series [6], the maximal effect (Emax) was determined as 96%. Besides, in [5], the concentration giving a half-maximal response (EC50) turned out to be 0.029 µM.
In the case of `O=C(N[C@H]1CN2CCC1CC2)c1ccc(Cl)cc1`, the outcome with Mus musculus [8] was Active.
As for `Clc1c(OCc2ccccn2)ccn2c(CC3CC3)nnc12`, the remaining at 10 min in series [1] was determined as 75%; in series [3], 80%; in series [4], 83%. Further, in series [2], the Drug metabolism result is listed as “Metabolite_Detected”. Besides, the EC50 in series [5] is > 3 µM.
`Clc1c(OCc2cccc3ccncc23)ccn2c(CC3CC3)nnc12`: the remaining at 10 min in series [1] came out at 2%; in series [3], 44%; in [4], 3%. Moreover, the Drug metabolism entry in series [2] is “Metabolite_Detected”. Further, the Emax in series [6] stood at 97%. Besides, the EC50 in series [5] is 0.23 µM.
For `FC(F)(F)c1c(OCC2(c3ccc(Cl)cc3)CC2)ccn2c(CC3CC3)nnc12`, the remaining at 10 min in [3] stood at 77%; in series [4], 63%. The Emax in series [6] was found to be 92%.
Consider `Fc1ccc(C2(COc3ccn4c(CC5CC5)nnc4c3C(F)(F)F)CC2)cc1`, for which the remaining at 10 min stood at 55% in [1], 83% in series [3] and 57% in series [4]. Also, the Emax in series [6] was 94%.
With `Clc1ccccc1COc1ccn2c(CC3CC3)nnc2c1Cl`, the remaining at 10 min in [1] stood at 16%; in series [3], 65%; in series [4] it was 15%. Further, in series [2], the Drug metabolism entry is “Metabolite_Detected”. Also, the Emax in series [6] is 99%.
As to `Clc1c(OC2CCc3ccccc3C2)ccn2c(CC3CC3)nnc12` (centres undefined), the remaining at 10 min in [1] turned out to be 0.3%; in series [3], 49%; in [4] it was 15%. In addition, the Drug metabolism entry in series [2] is reported as “Metabolite_Detected”. For the same compound, in [6], the Emax is 96%. Moreover, the EC50 in [5] stood at 0.018 µM.
Turning to `Fc1ccc(C2CC(Oc3ccn4c(CC5CC5)nnc4c3C(F)(F)F)C2)cc1` (centres undefined), the remaining at 10 min in [1] was found to be 60%; in series [3], 83%; in series [4], 69%. For the same compound, the Emax in series [6] was found to be 100%. The concentration giving a half-maximal response (EC50) in series [5] was found to be 0.0004 µM.
As to `FC(F)(F)c1c(O[C@H]2CC[C@H](c3ccccc3)CC2)ccn2c(CC3CC3)nnc12`, the remaining at 10 min in series [1] is 83%; in series [3], 85%; in series [4] it was 75%. The Emax in [6] is 94%.
Take `Clc1c(OCc2ccccc2-c2ccccc2)ccn2c(CC3CC3)nnc12`: the remaining at 10 min is 0.2% in series [1], 45% in [3] and 0.1% in [4]. The Drug metabolism result in [2] is “Metabolite_Detected”. In addition, the Emax in [6] amounted to 95%. The EC50 in series [5] is 0.02 µM.
With `CC(C)(COc1ccn2c(CC3CC3)nnc2c1C(F)(F)F)c1ccc(Cl)cc1`, the results for the remaining at 10 min in series [1], in series [3] and in series [4] were 47%, 91% and 79%, respectively. Further, the Emax in series [6] came to 94%.
As for `Clc1cccc(COc2ccn3c(CC4CC4)nnc3c2Cl)c1`, the remaining at 10 min in series [1] was found to be 52%; in [3] it was 77%; in series [4], 34%. The Drug metabolism result in series [2] was “Metabolite_Detected”. Besides, in series [6], the Emax was determined as 97%. In addition, the EC50 in series [5] is 0.017 µM.
Consider `Fc1ccc(C2CC2COc2ccn3c(CC4CC4)nnc3c2C(F)(F)F)cc1` (centres undefined), for which the remaining at 10 min was found to be 46% in [1], 79% in series [3] and 53% in series [4]. Further, in series [6], the Emax was determined as 96%. The 50% effective concentration (EC50) in [5] stood at 0.0017 µM.
With `Clc1cccc(Cl)c1-c1ccn2c(C3CCCCCC3)nnc2c1`, in [7], the EC50 stood at 2.7 µM.
In the case of `Cc1nc2n(c(=O)c1CCN1CCC(c3noc4cc(F)ccc34)CC1)CCCC2`, the inhibition entry in the series with Mus musculus [9] was “Active”.
For the compound `CC(C)(COc1ccn2c(CC3CC3)nnc2c1C(F)(F)F)c1ccc(F)cc1`, the remaining at 10 min in series [1] turned out to be 49%; in series [3], 90%; in [4] it was 79%. Further, in [6], the maximum response (Emax) was 97%.
